Results published in ChEMBL document CHEMBL5291721, “A preclinical secondary pharmacology resource illuminates target-adverse drug reaction associations of marketed drugs” (Nat Commun, 2023).

Legend:
[1] = biological target: T1, Alpha-1A adrenergic receptor (Homo sapiens, UniProt P35348)
T1 sequence (P35348 whole entry): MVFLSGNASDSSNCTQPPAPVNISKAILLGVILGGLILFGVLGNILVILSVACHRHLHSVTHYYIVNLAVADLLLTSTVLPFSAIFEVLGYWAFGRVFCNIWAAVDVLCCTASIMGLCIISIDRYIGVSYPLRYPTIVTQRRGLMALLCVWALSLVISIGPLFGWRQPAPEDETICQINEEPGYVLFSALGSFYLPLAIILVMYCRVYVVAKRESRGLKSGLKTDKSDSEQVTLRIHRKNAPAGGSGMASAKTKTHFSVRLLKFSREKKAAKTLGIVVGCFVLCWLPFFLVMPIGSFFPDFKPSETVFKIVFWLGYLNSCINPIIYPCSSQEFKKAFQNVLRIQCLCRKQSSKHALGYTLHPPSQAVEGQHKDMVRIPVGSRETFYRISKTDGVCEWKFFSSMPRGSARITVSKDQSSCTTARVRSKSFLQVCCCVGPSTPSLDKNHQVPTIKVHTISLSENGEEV

[2] = biological target: T2, Alpha-2C adrenergic receptor (Homo sapiens, UniProt P18825); format: functional
T2 sequence (P18825 whole entry): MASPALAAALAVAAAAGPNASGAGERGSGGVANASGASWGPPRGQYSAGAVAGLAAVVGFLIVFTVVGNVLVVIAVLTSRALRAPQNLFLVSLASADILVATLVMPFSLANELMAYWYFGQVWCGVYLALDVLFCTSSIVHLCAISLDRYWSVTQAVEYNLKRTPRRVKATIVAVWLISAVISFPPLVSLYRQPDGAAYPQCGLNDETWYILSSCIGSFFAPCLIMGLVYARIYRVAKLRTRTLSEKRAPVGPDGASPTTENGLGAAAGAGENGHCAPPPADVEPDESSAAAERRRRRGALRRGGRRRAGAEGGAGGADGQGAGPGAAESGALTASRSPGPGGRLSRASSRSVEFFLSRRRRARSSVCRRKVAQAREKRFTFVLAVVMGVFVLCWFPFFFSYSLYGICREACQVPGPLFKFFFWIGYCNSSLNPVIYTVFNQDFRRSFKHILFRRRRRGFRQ

[3] = biological target: Beta-2 adrenergic receptor (Homo sapiens, UniProt P07550); format: functional, cell-based
[4] = biological target: T3, Cannabinoid receptor 1 (Homo sapiens, UniProt P21554); format: functional, cell-based
[5] = biological target: T3, Cannabinoid receptor 1
[6] = biological target: T4, Estrogen receptor (Homo sapiens, UniProt P03372)
T4 sequence (P03372 whole entry): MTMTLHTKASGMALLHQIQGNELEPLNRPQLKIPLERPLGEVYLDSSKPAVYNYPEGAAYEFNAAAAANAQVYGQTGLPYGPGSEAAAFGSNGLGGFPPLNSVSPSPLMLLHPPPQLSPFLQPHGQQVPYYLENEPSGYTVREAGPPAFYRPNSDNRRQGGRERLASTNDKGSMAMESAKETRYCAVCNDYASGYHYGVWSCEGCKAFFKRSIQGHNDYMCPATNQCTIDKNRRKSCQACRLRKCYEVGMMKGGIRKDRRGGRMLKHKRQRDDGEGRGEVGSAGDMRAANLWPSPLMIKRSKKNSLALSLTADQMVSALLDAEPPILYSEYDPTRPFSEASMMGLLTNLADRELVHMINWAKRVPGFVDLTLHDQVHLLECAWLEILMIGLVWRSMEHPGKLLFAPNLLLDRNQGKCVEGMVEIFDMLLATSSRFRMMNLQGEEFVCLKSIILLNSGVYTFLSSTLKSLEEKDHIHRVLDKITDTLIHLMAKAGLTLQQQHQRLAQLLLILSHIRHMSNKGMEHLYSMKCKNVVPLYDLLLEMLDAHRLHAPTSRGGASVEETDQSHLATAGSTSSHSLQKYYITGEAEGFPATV

[7] = biological target: T5, 5-hydroxytryptamine receptor 1A (Homo sapiens, UniProt P08908); format: functional, cell-based
T5 sequence (P08908 whole entry): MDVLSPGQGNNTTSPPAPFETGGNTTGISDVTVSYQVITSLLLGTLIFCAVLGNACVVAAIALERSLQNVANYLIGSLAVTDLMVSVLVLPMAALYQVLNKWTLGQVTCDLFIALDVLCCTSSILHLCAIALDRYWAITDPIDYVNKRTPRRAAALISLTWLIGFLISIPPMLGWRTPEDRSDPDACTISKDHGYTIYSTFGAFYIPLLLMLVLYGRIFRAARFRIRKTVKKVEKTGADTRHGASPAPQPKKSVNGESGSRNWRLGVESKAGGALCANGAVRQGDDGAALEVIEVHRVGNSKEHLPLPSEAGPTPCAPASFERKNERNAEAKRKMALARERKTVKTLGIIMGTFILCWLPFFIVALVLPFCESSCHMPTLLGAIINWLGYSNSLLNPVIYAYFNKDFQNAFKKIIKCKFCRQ

[8] = biological target: 5-hydroxytryptamine receptor 2A (Homo sapiens, UniProt P28223); format: functional, cell-based
[9] = biological target: Voltage-gated inwardly rectifying potassium channel KCNH2 (Homo sapiens, UniProt Q12809); format: functional
[10] = biological target: Melanocortin receptor 3 (Homo sapiens, UniProt P41968)
[11] = biological target: Melanocortin receptor 4 (Homo sapiens, UniProt P32245)
[12] = biological target: Motilin receptor (Homo sapiens, UniProt O43193)
Note: assay procedure not described here.

T3 sequence (P21554 whole entry): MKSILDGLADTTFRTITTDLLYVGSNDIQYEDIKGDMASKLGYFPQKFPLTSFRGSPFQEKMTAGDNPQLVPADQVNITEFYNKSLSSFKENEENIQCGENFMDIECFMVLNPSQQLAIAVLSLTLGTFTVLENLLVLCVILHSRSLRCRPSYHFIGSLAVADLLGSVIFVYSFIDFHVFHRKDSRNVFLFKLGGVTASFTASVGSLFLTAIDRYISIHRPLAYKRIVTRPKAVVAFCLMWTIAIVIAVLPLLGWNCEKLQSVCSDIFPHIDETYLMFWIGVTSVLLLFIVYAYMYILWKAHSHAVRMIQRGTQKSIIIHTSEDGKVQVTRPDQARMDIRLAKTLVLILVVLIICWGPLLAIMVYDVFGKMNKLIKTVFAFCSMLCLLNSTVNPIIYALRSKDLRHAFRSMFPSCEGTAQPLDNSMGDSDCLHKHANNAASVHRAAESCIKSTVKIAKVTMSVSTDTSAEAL
Chain of 5-hydroxytryptamine receptor 2A (P28223 whole entry): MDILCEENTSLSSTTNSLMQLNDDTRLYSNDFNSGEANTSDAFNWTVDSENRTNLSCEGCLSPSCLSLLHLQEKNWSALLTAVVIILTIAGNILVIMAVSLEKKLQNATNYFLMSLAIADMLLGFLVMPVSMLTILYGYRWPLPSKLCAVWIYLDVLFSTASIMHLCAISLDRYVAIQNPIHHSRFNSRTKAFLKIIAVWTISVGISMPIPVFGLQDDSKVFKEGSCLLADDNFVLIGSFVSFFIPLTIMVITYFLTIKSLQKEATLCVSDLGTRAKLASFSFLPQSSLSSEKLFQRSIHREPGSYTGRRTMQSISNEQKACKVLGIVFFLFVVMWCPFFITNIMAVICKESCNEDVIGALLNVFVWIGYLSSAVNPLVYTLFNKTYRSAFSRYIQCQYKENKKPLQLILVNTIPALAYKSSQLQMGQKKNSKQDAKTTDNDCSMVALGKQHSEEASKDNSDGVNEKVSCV
Chain of Voltage-gated inwardly rectifying potassium channel KCNH2 (Q12809 whole entry): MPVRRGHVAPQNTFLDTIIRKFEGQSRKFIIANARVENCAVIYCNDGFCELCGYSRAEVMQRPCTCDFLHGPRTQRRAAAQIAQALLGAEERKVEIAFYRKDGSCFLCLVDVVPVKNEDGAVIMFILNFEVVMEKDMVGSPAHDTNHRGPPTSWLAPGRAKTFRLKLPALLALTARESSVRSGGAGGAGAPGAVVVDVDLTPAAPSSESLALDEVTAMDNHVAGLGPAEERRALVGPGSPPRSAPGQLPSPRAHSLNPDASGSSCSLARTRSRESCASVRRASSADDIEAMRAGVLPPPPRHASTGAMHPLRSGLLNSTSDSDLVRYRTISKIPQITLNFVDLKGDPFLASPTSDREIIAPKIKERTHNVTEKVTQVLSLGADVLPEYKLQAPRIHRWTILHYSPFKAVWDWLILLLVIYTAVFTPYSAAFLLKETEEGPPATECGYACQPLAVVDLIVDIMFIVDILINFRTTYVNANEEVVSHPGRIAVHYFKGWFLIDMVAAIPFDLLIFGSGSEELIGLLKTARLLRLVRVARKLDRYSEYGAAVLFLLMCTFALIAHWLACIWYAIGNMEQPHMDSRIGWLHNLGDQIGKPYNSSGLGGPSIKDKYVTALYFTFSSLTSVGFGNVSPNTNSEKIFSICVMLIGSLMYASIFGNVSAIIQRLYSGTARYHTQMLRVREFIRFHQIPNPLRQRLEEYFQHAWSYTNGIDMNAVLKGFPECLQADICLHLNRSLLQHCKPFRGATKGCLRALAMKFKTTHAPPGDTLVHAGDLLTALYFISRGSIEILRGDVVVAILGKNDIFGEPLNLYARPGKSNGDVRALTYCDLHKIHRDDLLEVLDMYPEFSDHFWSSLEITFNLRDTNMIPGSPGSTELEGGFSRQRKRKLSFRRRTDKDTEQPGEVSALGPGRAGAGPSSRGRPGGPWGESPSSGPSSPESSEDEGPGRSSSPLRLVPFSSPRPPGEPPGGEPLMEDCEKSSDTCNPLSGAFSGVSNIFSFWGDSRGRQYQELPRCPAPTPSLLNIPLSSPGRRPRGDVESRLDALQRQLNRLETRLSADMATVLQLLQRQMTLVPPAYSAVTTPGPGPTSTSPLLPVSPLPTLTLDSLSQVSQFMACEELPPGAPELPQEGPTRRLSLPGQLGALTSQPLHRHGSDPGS
Chain of Melanocortin receptor 4 (P32245 whole entry): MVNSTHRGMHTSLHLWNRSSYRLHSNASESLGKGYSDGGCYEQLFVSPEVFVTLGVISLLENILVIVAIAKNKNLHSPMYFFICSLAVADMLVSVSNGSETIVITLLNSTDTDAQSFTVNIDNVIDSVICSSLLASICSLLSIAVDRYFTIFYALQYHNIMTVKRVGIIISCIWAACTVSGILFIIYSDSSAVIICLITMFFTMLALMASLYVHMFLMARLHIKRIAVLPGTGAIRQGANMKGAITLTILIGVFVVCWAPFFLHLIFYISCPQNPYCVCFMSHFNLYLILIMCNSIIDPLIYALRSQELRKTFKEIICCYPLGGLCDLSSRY
Chain of Melanocortin receptor 3 (P41968 whole entry): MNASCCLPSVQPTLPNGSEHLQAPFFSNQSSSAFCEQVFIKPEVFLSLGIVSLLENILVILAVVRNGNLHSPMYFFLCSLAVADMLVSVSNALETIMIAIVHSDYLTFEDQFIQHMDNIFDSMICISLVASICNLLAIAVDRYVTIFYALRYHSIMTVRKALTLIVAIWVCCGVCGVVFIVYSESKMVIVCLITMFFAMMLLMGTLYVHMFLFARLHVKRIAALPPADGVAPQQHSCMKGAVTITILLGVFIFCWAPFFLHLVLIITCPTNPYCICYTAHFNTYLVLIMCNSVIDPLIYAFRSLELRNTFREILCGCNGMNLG
Chain of Motilin receptor (O43193 whole entry): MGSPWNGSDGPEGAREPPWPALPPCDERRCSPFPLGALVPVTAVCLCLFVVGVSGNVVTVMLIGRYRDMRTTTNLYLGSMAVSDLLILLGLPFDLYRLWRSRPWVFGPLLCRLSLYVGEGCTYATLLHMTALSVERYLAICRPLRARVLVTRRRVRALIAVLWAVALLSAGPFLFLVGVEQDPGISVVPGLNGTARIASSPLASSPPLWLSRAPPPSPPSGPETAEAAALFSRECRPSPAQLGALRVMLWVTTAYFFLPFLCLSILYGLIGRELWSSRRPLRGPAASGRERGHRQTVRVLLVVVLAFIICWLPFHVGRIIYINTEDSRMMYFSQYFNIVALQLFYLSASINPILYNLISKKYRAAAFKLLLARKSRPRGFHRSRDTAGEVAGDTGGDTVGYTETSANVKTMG
Chain of Beta-2 adrenergic receptor (P07550 whole entry): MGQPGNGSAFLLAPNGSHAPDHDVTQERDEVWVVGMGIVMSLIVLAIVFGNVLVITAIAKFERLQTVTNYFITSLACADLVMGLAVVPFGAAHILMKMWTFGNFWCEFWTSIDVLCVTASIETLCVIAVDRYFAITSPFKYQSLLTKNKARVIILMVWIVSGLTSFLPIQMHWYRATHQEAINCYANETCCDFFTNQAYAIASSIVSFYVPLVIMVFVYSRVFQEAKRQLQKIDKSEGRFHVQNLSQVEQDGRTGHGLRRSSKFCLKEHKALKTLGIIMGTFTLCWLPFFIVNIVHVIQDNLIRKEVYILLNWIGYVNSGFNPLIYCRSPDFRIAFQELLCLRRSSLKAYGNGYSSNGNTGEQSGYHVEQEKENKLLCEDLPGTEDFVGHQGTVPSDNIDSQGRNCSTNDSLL

O=C1CN=C(c2ccccn2)c2cc(Br)ccc2N1 [BROMAZEPAM]
AC50 [1]: > 10 µM
AC50 [2]: > 10 µM
AC50 [3]: > 30 µM
AC50 [4]: > 30 µM
AC50 [5]: > 10 µM
AC50 [6]: > 10 µM
AC50 [7]: > 10 µM
AC50 [8]: > 10 µM
AC50 [9]: > 30 µM
AC50 [10]: > 10 µM
AC50 [11]: > 10 µM
AC50 [12]: > 10 µM
